In ChEMBL document CHEMBL1155628, “A new cembranolide from the soft coral Sinularia capillosa” (2000):
Values after ≈ are worked out from the molar mass of the structure shown.

Assays:
L1210 = experiment: Cytotoxicity against mouse L1210 cells; assay type: functional; conditions: read-out: ED50 (the source's name)
P388 = experiment: Cytotoxicity against mouse P388 cells; assay type: functional; conditions: read-out: ED50 (the source's name)

Row | Compound | EC50 (L1210) | EC50 (P388)
1 | C=C1C(=O)O[C@]2(C)CC[C@@H]1C[C@@H]1O[C@@]1(C)CC[C@H](OC(C)=O)[C@@]1(C)CC[C@@H]2O1 | 5 µg/mL (≈ 12.7 µM) | 2.5 µg/mL (≈ 6.37 µM)
2 | C=C1C(=O)O[C@]2(C)CC[C@@H]1C[C@@H](O)[C@@](C)(O)CC/C=C(\C)CC[C@@H]2O [CAPILLOLIDE] | 18.5 µg/mL (≈ 52.5 µM) | 15 µg/mL (≈ 42.6 µM)
3 | C=C1C(=O)O[C@]2(C)CC[C@@H]1C[C@@H]1O[C@@]1(C)CC/C=C(\C)CC[C@@H]2O [SINULARIOLIDE] | 10 µg/mL (≈ 29.9 µM) | 8.5 µg/mL (≈ 25.4 µM)
4 | C=C1C(=O)O[C@@H]2C[C@H]1CC[C@]1(C)O[C@H]1CC/C(C)=C/CC[C@@]2(C)O [FLEXIBILIDE] | 3 µg/mL (≈ 8.97 µM) | 1.5 µg/mL (≈ 4.48 µM)
